# Patent US6107070A, “Human manganese superoxide dismutase proteins” (University of Florida, priority 1998, dated 2000)
# Numbering of substitutions follows the chain as printed.
# What was measured:
# Format in all cases: biochemical
# [1] = biological target: T1, human manganese superoxide dismutase (hMn SOD) variant H30E (Homo sapiens, UniProt P04179, E155Q/H54E); assay: Disproportionation of superoxide by H30E hMnSOD, 20° C.; details: Table 4; pH 9.4, 20° C.
# T1 construct: as a mature protein tagged with an extra Met at the amino terminus; made in house
# T1 sequence (P04179 25-222 H54E/E155Q): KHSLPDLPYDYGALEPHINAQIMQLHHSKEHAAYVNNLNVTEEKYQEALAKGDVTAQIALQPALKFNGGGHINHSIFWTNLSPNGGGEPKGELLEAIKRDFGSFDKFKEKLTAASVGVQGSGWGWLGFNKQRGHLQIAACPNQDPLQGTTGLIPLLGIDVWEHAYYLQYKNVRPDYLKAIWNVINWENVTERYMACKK
# [2] = biological target: T2, human manganese superoxide dismutase (hMn SOD) variant H30Q (His 30 replaced by Gln) (Homo sapiens, UniProt P04179, H54Q); assay: Disproportionation of superoxide by H30Q hMnSOD, stopped-flow, 20° C.; details: pH 9.6, 20° C.
# T2 construct: as a mature protein tagged with an extra Met at the amino terminus; made in house
# T2 sequence (P04179 25-222 H54Q): T1 sequence (P04179 25-222 H54E/E155Q) with E30Q, Q131E
# Description: (§1) Experiments were based on the stabilization of KO2 in aprotic solvent and the subsequent large dilution of this solution by an aqueous solution of enzyme in a stopped-flow apparatus, as described by McClune and Fee (1978). KO2 was dissolved in a mixture of dimethyl sulfoxide and […] (2:1 by volume; Aldrich, spectrophotometric grade) with solubility of KO2 enhanced with 18-crown-6 (Valentine and Curtis, 1975). The stopped-flow spectrophotometer (Kinetic Instruments, Ann Arbor, Mich.) was capable of efficient mixing of this solution with an acqueous solution of enzyme in buffer with a dead time between 1.5 and 2.0 ms. One drive syringe (capacity 50 μl) contained the aprotic solution of O2. This was diluted fifty-fold by the contents of a second syringe (capacity 2.5 ml) which contained enzyme, EDTA, and buffer. The decay of superoxide in initial velocity experiments and progress curves was monitored by its absorption at 250 to 300 nm. Stopped-flow experiments were carried out at […]. Four or more kinetic traces were averaged to reduce noise. Steady-state parameters were obtained by least-squares analysis of such data (Leatherbarrow (1987) "Enzfitter: a nonlinear regression data analysis program for the IBM PC" Elsevier BIOSOFT, Cambridge).
# (§2) In the present study, several novel hMnSOD proteins containing substitutions of His 30 (referring to the amino acid sequence of SEQ ID NO:2) were prepared by PCR site directed mutagenesis and purified by column chromatography, as described in the Materials and Methods section above, and as also described by Hsu et al. (1996) J. Biol. Chem. 271: 1768; and Hsieh et al. (1998) Biochemistry 37: 4731. In particular, His 30 was substituted with each of Ala, Asn, Ser and Gln. The resulting novel hMnSOD proteins containing a His 30 substitution were then assayed for enzymatic activity and product inhibition at 20° C. by measuring the absorbance of superoxide at 250 nm using stopped-flow spectrophotometry, as described above in the Materials and Methods section. […]
# [3] = biological target: T3, human manganese superoxide dismutase (hMn SOD) variant H30A (His 30 replaced by Ala) (Homo sapiens, UniProt P04179, H54A); assay: Disproportionation of superoxide by H30A hMnSOD, stopped-flow, 20° C.; details: pH 9.6, 20° C.
# T3 construct: as a mature protein tagged with an extra Met at the amino terminus; made in house
# T3 sequence (P04179 25-222 H54A): T1 sequence (P04179 25-222 H54E/E155Q) with E30A, Q131E
# Description: as §1, §2
# [4] = biological target: T4, human manganese superoxide dismutase (hMn SOD) variant H30K (Homo sapiens, UniProt P04179, H54K); assay: Disproportionation of superoxide by H30K hMnSOD, 20° C.; details: Table 4; pH 9.4, 20° C.
# T4 construct: as a mature protein tagged with an extra Met at the amino terminus; made in house
# T4 sequence (P04179 25-222 H54K): T1 sequence (P04179 25-222 H54E/E155Q) with E30K, Q131E
# [5] = biological target: T5, human manganese superoxide dismutase (hMn SOD) variant Y34F (Tyr34Phe) (Homo sapiens, UniProt P04179, Y58F); assay: Disproportionation of superoxide by Y34F hMnSOD, Example 3 (Tables 4 and 5), 20° C.
# T5 construct: as a mature protein tagged with an extra Met at the amino terminus; made in house; host or cells: E. coli QC774 (SodA/SodB mutant), pTrc99A
# T5 sequence (P04179 25-222 Y58F): T1 sequence (P04179 25-222 H54E/E155Q) with E30H, Y34F, Q131E
# Description: as §1, §2
# [6] = Table 4, 20° C., pH 9.4 per footnote
smiles,measurement,setting,value
[O]O [superoxide],kcat,[1],0.052 ms^.1
same,kcat /Km,[1],0.63 μM^.1 S^.1
same,kcat,[2]; Table 4,1.0 ms^.1
same,kcat /Km,[2]; Table 4,43 μM^.1 S^.1
same,ko /[E] (rate constant for the zero-order region of catalysis),[2]; Table 5,510 S^.1
same,kcat,[3]; Table 4,1.9 ms^.1
same,kcat /Km,[3]; Table 4,20 μM^.1 S^.1
same,ko /[E] (rate constant for the zero-order region of catalysis),[3]; Table 5,610 S^.1
same,kcat,[4],0.74 ms^.1
same,kcat /Km,[4],0.80 μM^.1 S^.1
same,kcat,[5]; [6],3.3 ms^.1
same,kcat /Km,[5]; [6],870 μM^.1 S^.1
same,ko /[E] (rate constant for the zero-order region of catalysis),"[5]; Table 5, pH 9.6, 20° C.",88 S^.1
